Measured values reported in US10335411B2, “Administration of ubiquitin-activating enzyme inhibitor and radiation” (Millennium Pharmaceuticals, Inc., priority 2014, dated 2019).

Experiments:
[1] = system: LU-01-0266 xenograft; assay: LU-01-0266 xenograft model, Compound 1 and radiation; type: in vivo, mice; conditions: for Classification / Synergy score: through Day 20
From the text: The LU-01-0266 xenograft model is a human primary non-small cell lung tumor model. Approximately nine week old female BALB/c nude (Shanghai Sino-British SIPPR/BK Laboratory Animal Co., LTD.) mice were implanted subcutaneously with approximate 30 mm^3 LU-01-0266 tumor slices in the right flank. When the mean tumor volume reached approximately 173 mm^3, the animals were randomized into 10 treatment groups (n=8/group).
(§1) Compound 1 [((1R,2R,3S,4R)-2,3-dihydroxy-4-(2-(3-(trifluoromethylthio) ? phenyl)pyrazolo[1,5-a]pyrimidin-7-ylamino)cyclopentyl)methyl sulfamate] is formulated in 10% HPbCD in sterile water and administered intravenously on days 0, 3, 7, 10, 14, 17 in the LU-01-0266 and HN-13-0007 models and on days 0, 3, 8, 11, 15, 18 in the ST-02-0004 model and in the second study with the LU-01-0030 model. Compound 1 formulation was prepared weekly and stored at room temperature in the dark.
Beam-focused radiation was delivered using 2 Gray dosed on days 0, 1, 7, and 8 or on days 0, 3, 7, and 10 in the LU-01-0266 and HN-13-0007 models. In the ST-02-0004 model 2 Gray of radiation was delivered on days 0, 1, 3, and 8. A Rad Source RS-2000 X-ray irradiator was used for therapy (Rad Source). Before radiation, animals were anesthetized by i.p. injection using 1.0% sodium pentobarbital at 80 mg/kg (Vendor: Sigma). Focused radiation was applied to each mouse at 1 Gy/min.
(§2) Tumors were measured twice weekly using vernier calipers. Tumor volumes were calculated using the following formula: (0.5×[length×width^2]). Treatment groups and dosing/treatment schedules are indicated in Tables 1a, 2a, 3a, 4a, and 5a below. Tumor size and body weight are measured approximately twice a week for the duration of the study. Mice are euthanized when their tumor volume reached approximately 1000 mm^3. Tumor growth continued to be monitored after the dosing period in some studies. In Tables 1a, 2a, 3a, 4a, and 5a tumor volumes are shown for HN-13-0014 (day 21), LU-01-0030 (day 21), the second LU-01-0030 study (day 20), LU-01-0266 (day 20), ST-02-0004 (day 21) and FIN-13-0007 (day 24), respectively. Average tumor volume is reported as a function of time for selected groups of selected studies.
(§3) Measurements from day 0 to day 20, day 21 or day 24 are analyzed as specified in Tables below. All tumor volumes have a value of 1 added to them before log10 transformation. For each animal, the log tumor volume at day 0 is subtracted from the log tumor volume on the subsequent days. This difference vs. time is used to calculate an area under the curve (AUC) for each animal using the trapezoid rule. In instances when an animal in a treatment group is removed early from the study, the last observed tumor value is carried forward through all subsequent time points. The synergy score for the combination of agents A and B is defined as 100*(mean(AUCAB)−mean(AUCA)−mean(AUCB)+mean(AUCctl))/mean(AUCctl): where AUCAB, AUCA, AUCB, and AUCctl are the AUC values for animals in the combination group, the A group, the B group, and the control group, respectively. The standard error of the synergy score is computed based on the variation in the AUC values among the animals. […] If the P-value is above 0.05, then the combination is considered to be additive. If the P-value is below 0.05, and the synergy score is less than zero, then the combination is considered to be synergistic. If the P-value is below 0.05 and the synergy score was greater than zero, but the mean AUC for the combination was lower than the lowest mean AUC among the two single agent treatments, then the combination was sub-additive. If the P-value is below 0.05 and if the synergy score was greater than zero, and the mean AUC for the combination was greater than the mean AUC for at least one of the single agent treatments, then the combination was antagonistic.

[2] = system: LU-01-0030 xenograft; assay: second LU-01-0030 xenograft study, Compound 1 and radiation; type: in vivo, mice
From the text: In a second study with the LU-01-0030 xenograft model, 6-8 week old female BALB/c nude (Shanghai Sino-British SIPPR/BK Laboratory Animal Co., LTD.) mice were implanted subcutaneously with approximate 20-30 mm^3 LU-01-0030 tumor slices in the right flank. When the mean tumor volume reached approximately 182 mm^3, the animals were randomized into 6 treatment groups (n=8/group).
as §1
Beam-focused radiation was delivered using 4 Gray dosed on day 0 in the second study for the LU-01-0030 model.
as §2, §3

[3] = 6.25 mg/kg Compound 1 + 2 Gy Radiation D0, 1, 7, 8
[4] = 6.25 mg/kg Compound 1 + 2 Gy Radiation D0, 3, 7, 10
[5] = 15 mg/kg Compound 1 + 2 Gy Radiation D0, 1, 7, 8
[6] = 15 mg/kg Compound 1 + 2 Gy Radiation D0, 3, 7, 10
[7] = 6.25 mg/kg Compound 1 + 4 Gy Radiation D0
[8] = 15 mg/kg Compound 1 + 4 Gy Radiation D0

For `NS(=O)(=O)OC[C@H]1C[C@@H](Nc2ccnc3cc(-c4cccc(SC(F)(F)F)c4)nn23)[C@H](O)[C@@H]1O` [Compound 1, ((1R,2R,3S,4R)-2,3-dihydroxy-4-(2-(3-(trifluoromethylthio)phenyl)pyrazolo[1,5-a]pyrimidin-7-ylamino)cyclopentyl)methyl sulfamate], the “Tumor Volume Day 20” value ([1]; 6.25 mg/kg Compound 1 IV BIWx3 + 2 Gy Radiation Beam D 0, 1, 7, 8) was 181.6 mm^3, the “Tumor Volume Day 20” value ([1]; 6.25 mg/kg Compound 1 IV BIWx3 + 2 Gy Radiation Beam D 0, 3, 7, 10) was 213.4 mm^3 and the “Tumor Volume Day 20” value ([1]; 6.25 mg/kg Compound 1 IV BIWx3 = D 0, 3, 7, 10, 14, 17, single agent) was 1004.5 mm^3. For the same compound, the “Tumor Volume Day 20” value ([1]; 15 mg/kg Compound 1 IV BIWx3 + 2 Gy Radiation Beam D 0, 1, 7, 8) was 77.4 mm^3, the “Tumor Volume Day 20” value ([1]; 15 mg/kg Compound 1 IV BIWx3 + 2 Gy Radiation Beam D 0, 3, 7, 10) was 174.9 mm^3 and the “Tumor Volume Day 20” value ([1]; 15 mg/kg Compound 1 IV BIWx3 = D 0, 3, 7, 10, 14, 17, single agent) was 779 mm^3. The combination effect ([1]; Compound 1 with 2 Gy radiation) was “additive combination effect”, the “anti-tumor activity compared to the vehicle control” value ([1]; single agent, IV at 6.25 and 15 mg/kg BIW for 3 weeks on Days 0, 3, 7, 10, 14, 17) was “weak anti-tumor activity” and the Classification [1, 3] was “Additive (If the P-value is above 0.05, then the combination is considered to be additive)”. The Synergy score [1, 3] was 14, the Classification [1, 4] was “Additive (If the P-value is above 0.05, then the combination is considered to be additive)” and the Synergy score [1, 4] was 15. For the same compound, the Classification [1, 5] was “Additive (If the P-value is above 0.05, then the combination is considered to be additive)”, the Synergy score [1, 5] was −25 and the Classification [1, 6] was “Additive (If the P-value is above 0.05, then the combination is considered to be additive)”. The Synergy score [1, 6] was 12, the Classification [2, 7] was “Additive (If the P-value is above 0.05, then the combination is considered to be additive)” and the Synergy score [2, 7] was −74.5. The “Tumor Volume Day 20” value ([2]; 6.25 mg/kg Compound 1 IV D 0, 3, 8, 11, 15, 18 + 4 Gy Radiation Beam D 0) was 83.8 mm^3, the “Tumor Volume Day 20” value ([2]; 6.25 mg/kg Compound 1 IV D 0, 3, 8, 11, 15, 18, single agent) was 648.9 mm^3 and the Classification [2, 8] was “Additive (If the P-value is above 0.05, then the combination is considered to be additive)”. The Synergy score [2, 8] was −10.3, the “Tumor Volume Day 20” value ([2]; 15 mg/kg Compound 1 IV D 0, 3, 8, 11, 15, 18 + 4 Gy Radiation Beam D 0) was 2.04 mm^3 and the “Tumor Volume Day 20” value ([2]; 15 mg/kg Compound 1 IV D 0, 3, 8, 11, 15, 18, single agent) was 67.8 mm^3. The combination effect ([2]; Compound 1 with 4 Gy radiation) was “additive combination effect”.
